According to the supplement of paper PMC11665569:

Legend:
Assay in all cases: relative viability (fraction of vehicle control); higher = more viable / less inhibited
Settings in all cases: treatment time: 5 days
SW1573 = system: SW1573
Method: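 CCK-8 viability of SW1573 cells transfected with control, YAP/TAZ or TEAD1-4 siRNAs and treated with KRAS G12C inhibitors for 5 days. Values are normalised to vehicle control.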

H1373 = system: H1373
Method: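 CCK-8 viability of H1373 cells with empty vector or constitutively active YAP S127A, treated with KRAS G12C inhibitors for 5 days, normalised to vehicle control.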

H2030 = system: H2030
Method: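 CCK-8 viability of H2030 cells transfected with control, YAP/TAZ or TEAD1-4 siRNAs and treated with KRAS G12C inhibitors for 5 days. Values are normalised to vehicle control.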

H358 = system: H358
Method: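 CCK-8 viability of H358 cells with empty vector or constitutively active YAP S127A, treated with KRAS G12C inhibitors for 5 days. Absorbance at 450 nm normalised to vehicle control.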

C=CC(=O)N1CCN(c2ncnc3c(F)c(-c4c(O)cccc4F)c(Cl)cc23)CC1 [ARS1620]
relative viability
Settings | H358 | H1373 | H2030 | SW1573
log10 concentration (uM): 0, ectopic expression: YAP S127A | 0.842 | 0.7325 | – | –
log10 concentration (uM): 0, ectopic expression: empty vector (YAP experiment) | 0.6 | 0.658 | – | –
log10 concentration (uM): 0, siRNA knockdown: TEAD1-4 siRNA 1 | – | – | 0.502 | 0.394
log10 concentration (uM): 0, siRNA knockdown: TEAD1-4 siRNA 2 | – | – | 0.522 | 0.45
log10 concentration (uM): 0, siRNA knockdown: YAP/TAZ siRNA 1 | – | – | 0.521 | 0.174
log10 concentration (uM): 0, siRNA knockdown: YAP/TAZ siRNA 2 | – | – | 0.482 | 0.156
log10 concentration (uM): 0, siRNA knockdown: negative control siRNA | – | – | 0.948 | 0.929
log10 concentration (uM): 0.39794, ectopic expression: YAP S127A | 0.833 | 0.627 | – | –
log10 concentration (uM): 0.39794, ectopic expression: empty vector (YAP experiment) | 0.389 | 0.504 | – | –
log10 concentration (uM): 0.39794, siRNA knockdown: TEAD1-4 siRNA 1 | – | – | 0.429 | 0.297
log10 concentration (uM): 0.39794, siRNA knockdown: TEAD1-4 siRNA 2 | – | – | 0.365 | 0.376
log10 concentration (uM): 0.39794, siRNA knockdown: YAP/TAZ siRNA 1 | – | – | 0.499 | 0.172
log10 concentration (uM): 0.39794, siRNA knockdown: YAP/TAZ siRNA 2 | – | – | 0.448 | 0.15
log10 concentration (uM): 0.39794, siRNA knockdown: negative control siRNA | – | – | 0.927 | 0.952
log10 concentration (uM): 0.69897, ectopic expression: YAP S127A | 0.617 | 0.564 | – | –
log10 concentration (uM): 0.69897, ectopic expression: empty vector (YAP experiment) | 0.306 | 0.413 | – | –
log10 concentration (uM): 0.69897, siRNA knockdown: TEAD1-4 siRNA 1 | – | – | 0.257 | 0.273
log10 concentration (uM): 0.69897, siRNA knockdown: TEAD1-4 siRNA 2 | – | – | 0.256 | 0.381
log10 concentration (uM): 0.69897, siRNA knockdown: YAP/TAZ siRNA 1 | – | – | 0.369 | 0.186
log10 concentration (uM): 0.69897, siRNA knockdown: YAP/TAZ siRNA 2 | – | – | 0.386 | 0.175
log10 concentration (uM): 0.69897, siRNA knockdown: negative control siRNA | – | – | 0.874 | 0.952
log10 concentration (uM): 1, ectopic expression: YAP S127A | 0.558 | 0.545 | – | –
log10 concentration (uM): 1, ectopic expression: empty vector (YAP experiment) | 0.217 | 0.329 | – | –
log10 concentration (uM): 1, siRNA knockdown: TEAD1-4 siRNA 1 | – | – | 0.151 | 0.189
log10 concentration (uM): 1, siRNA knockdown: TEAD1-4 siRNA 2 | – | – | 0.168 | 0.351
log10 concentration (uM): 1, siRNA knockdown: YAP/TAZ siRNA 1 | – | – | 0.216 | 0.2
log10 concentration (uM): 1, siRNA knockdown: YAP/TAZ siRNA 2 | – | – | 0.261 | 0.182
log10 concentration (uM): 1, siRNA knockdown: negative control siRNA | – | – | 0.742 | 0.94
log10 concentration (uM): 1.301029996, ectopic expression: YAP S127A | 0.383 | 0.413 | – | –
log10 concentration (uM): 1.301029996, ectopic expression: empty vector (YAP experiment) | 0.128 | 0.26 | – | –
log10 concentration (uM): 1.301029996, siRNA knockdown: TEAD1-4 siRNA 1 | – | – | 0.0456 | 0.0763
log10 concentration (uM): 1.301029996, siRNA knockdown: TEAD1-4 siRNA 2 | – | – | 0.0819 | 0.233
log10 concentration (uM): 1.301029996, siRNA knockdown: YAP/TAZ siRNA 1 | – | – | 0.114 | 0.136
log10 concentration (uM): 1.301029996, siRNA knockdown: YAP/TAZ siRNA 2 | – | – | 0.14 | 0.139
log10 concentration (uM): 1.301029996, siRNA knockdown: negative control siRNA | – | – | 0.217 | 0.464
log10 concentration (uM): -0.30103, ectopic expression: YAP S127A | 0.942 | 0.811 | – | –
log10 concentration (uM): -0.30103, ectopic expression: empty vector (YAP experiment) | 0.711 | 0.862 | – | –
log10 concentration (uM): -0.30103, siRNA knockdown: TEAD1-4 siRNA 1 | – | – | 0.562 | 0.413
log10 concentration (uM): -0.30103, siRNA knockdown: TEAD1-4 siRNA 2 | – | – | 0.478 | 0.47
log10 concentration (uM): -0.30103, siRNA knockdown: YAP/TAZ siRNA 1 | – | – | 0.627 | 0.236
log10 concentration (uM): -0.30103, siRNA knockdown: YAP/TAZ siRNA 2 | – | – | 0.641 | 0.209
log10 concentration (uM): -0.30103, siRNA knockdown: negative control siRNA | – | – | 0.985 | 0.908
log10 concentration (uM): -0.60206, ectopic expression: YAP S127A | 0.958 | 0.866 | – | –
log10 concentration (uM): -0.60206, ectopic expression: empty vector (YAP experiment) | 0.806 | 0.847 | – | –
log10 concentration (uM): -0.60206, siRNA knockdown: TEAD1-4 siRNA 1 | – | – | 0.646 | 0.655
log10 concentration (uM): -0.60206, siRNA knockdown: TEAD1-4 siRNA 2 | – | – | 0.616 | 0.614
log10 concentration (uM): -0.60206, siRNA knockdown: YAP/TAZ siRNA 1 | – | – | 0.695 | 0.29
log10 concentration (uM): -0.60206, siRNA knockdown: YAP/TAZ siRNA 2 | – | – | 0.731 | 0.306
log10 concentration (uM): -0.60206, siRNA knockdown: negative control siRNA | – | – | 0.992 | 0.964
log10 concentration (uM): -1, ectopic expression: YAP S127A | 0.808 | 0.933 | – | –
log10 concentration (uM): -1, ectopic expression: empty vector (YAP experiment) | 0.883 | 0.917 | – | –
log10 concentration (uM): -1, siRNA knockdown: TEAD1-4 siRNA 1 | – | – | 0.742 | 0.683
log10 concentration (uM): -1, siRNA knockdown: TEAD1-4 siRNA 2 | – | – | 0.639 | 0.614
log10 concentration (uM): -1, siRNA knockdown: YAP/TAZ siRNA 1 | – | – | 0.753 | 0.41
log10 concentration (uM): -1, siRNA knockdown: YAP/TAZ siRNA 2 | – | – | 0.78 | 0.417
log10 concentration (uM): -1, siRNA knockdown: negative control siRNA | – | – | 0.997 | 0.976
log10 concentration (uM): -2, ectopic expression: YAP S127A | 0.792 | 1 | – | –
log10 concentration (uM): -2, ectopic expression: empty vector (YAP experiment) | 0.75 | 0.989 | – | –
log10 concentration (uM): -2, siRNA knockdown: TEAD1-4 siRNA 1 | – | – | 0.922 | 0.9354
log10 concentration (uM): -2, siRNA knockdown: TEAD1-4 siRNA 2 | – | – | 1.12 | 1.01
log10 concentration (uM): -2, siRNA knockdown: YAP/TAZ siRNA 1 | – | – | 0.976 | 0.817
log10 concentration (uM): -2, siRNA knockdown: YAP/TAZ siRNA 2 | – | – | 0.922 | 0.82
log10 concentration (uM): -2, siRNA knockdown: negative control siRNA | – | – | 1.02 | 1.02
